Laboratory results reported in US20240010634A1, “PYRIMIDINYL SULFONAMIDES AS INHIBITORS OF ACK1/TNK2 TYROSINE KINASE” (H. LEE MOFFITT CANCER CENTER AND RESEARCH INSTITUTE, INC., priority 2020, published 2024).

target: ACK1 (Homo sapiens (Human), UniProt Q07912); test: Reaction Biology 33P Hotspot assay; assay type: biochemical
Sequence (Q07912 whole entry): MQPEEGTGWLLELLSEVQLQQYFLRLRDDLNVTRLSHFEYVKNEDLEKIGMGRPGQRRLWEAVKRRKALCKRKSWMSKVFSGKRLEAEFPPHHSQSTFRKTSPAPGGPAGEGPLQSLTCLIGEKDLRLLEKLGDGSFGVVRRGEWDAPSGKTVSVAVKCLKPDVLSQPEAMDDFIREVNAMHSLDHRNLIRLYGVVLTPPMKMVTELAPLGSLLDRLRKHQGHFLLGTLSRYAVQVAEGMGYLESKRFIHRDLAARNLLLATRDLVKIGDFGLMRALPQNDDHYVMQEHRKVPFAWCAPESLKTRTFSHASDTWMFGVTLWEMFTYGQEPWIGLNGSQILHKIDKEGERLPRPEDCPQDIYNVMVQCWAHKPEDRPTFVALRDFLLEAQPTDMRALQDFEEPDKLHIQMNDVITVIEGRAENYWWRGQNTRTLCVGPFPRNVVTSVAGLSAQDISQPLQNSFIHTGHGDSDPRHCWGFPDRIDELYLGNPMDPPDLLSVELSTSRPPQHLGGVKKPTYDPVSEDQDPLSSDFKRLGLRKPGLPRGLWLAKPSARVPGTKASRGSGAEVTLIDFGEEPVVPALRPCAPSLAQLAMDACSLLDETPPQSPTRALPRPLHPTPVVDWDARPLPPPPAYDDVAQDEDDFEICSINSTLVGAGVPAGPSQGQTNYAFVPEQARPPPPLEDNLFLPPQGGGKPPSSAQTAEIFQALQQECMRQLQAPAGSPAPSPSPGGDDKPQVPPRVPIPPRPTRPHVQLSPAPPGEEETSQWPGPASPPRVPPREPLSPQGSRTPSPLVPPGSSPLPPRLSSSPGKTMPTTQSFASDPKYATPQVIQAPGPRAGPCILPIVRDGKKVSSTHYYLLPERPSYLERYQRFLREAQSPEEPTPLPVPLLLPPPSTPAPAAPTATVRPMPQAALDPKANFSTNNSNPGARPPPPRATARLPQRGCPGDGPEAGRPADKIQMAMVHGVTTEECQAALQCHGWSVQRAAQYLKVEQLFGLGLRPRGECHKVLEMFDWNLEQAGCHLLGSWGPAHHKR

| SMILES | IC50 [nM] |
| --- | --- |
| CC(C)Oc1cc(Nc2ncc(Cl)c(Nc3ccc(NS(=O)(=O)C(C)(C)C)cc3)n2)ccc1N1CCN(C)CC1 [N-(4-((5-chloro-2-((3-isopropoxy-4-(4-methylpiperazin-1-yl)phenyl)amino)pyrimidin-4-yl)amino)phenyl)-2-methylpropane-2-sulfonamide] | 15.5 |
| CN1CCN(c2ccc(Nc3ncc(Cl)c(Nc4cccc(NS(=O)(=O)C(C)(C)C)c4)n3)c(OC3CCC3)c2)CC1 [N-(3-((5-chloro-2-((2-cyclobutoxy-4-(4-methylpiperazin-1-yl)phenyl)amino)pyrimidin-4-yl)amino)phenyl)-2-methylpropane-2-sulfonamide] | 30 |
| CC(C)Oc1cc(Nc2ncc(Cl)c(Nc3cccc(NS(=O)(=O)C(C)(C)C)c3)n2)ccc1-c1cnn(C)c1 [N-(3-((5-chloro-2-((3-isopropoxy-4-(1-methyl-1H-pyrazol-4-yl)phenyl)amino)pyrimidin-4-yl)amino)phenyl)-2-methylpropane-2-sulfonamide] | 64 |
| COc1cc(-c2cnn(C)c2)ccc1Nc1ncc(C)c(Nc2cccc(NS(=O)(=O)C(C)(C)C)c2)n1 [N-(3-((2-((2-methoxy-4-(1-methyl-1H-pyrazol-4-yl)phenyl)amino)-5-methylpyrimidin-4-yl)amino)phenyl)-2-methylpropane-2-sulfonamide] | 15.2 |
| COc1cc(Nc2ncc(C)c(Nc3cccc(NS(=O)(=O)C(C)(C)C)c3)n2)ccc1-c1cnn(C)c1 [N-(3-((2-((3-methoxy-4-(1-methyl-1H-pyrazol-4-yl)phenyl)amino)-5-methylpyrimidin-4-yl)amino)phenyl)-2-methylpropane-2-sulfonamide] | 19 |
| Cc1cnc(Nc2ccc(-c3cnn(C)c3)c(OC(C)C)c2)nc1Nc1ccc(NS(=O)(=O)C(C)(C)C)cc1 [N-(4-((2-((3-isopropoxy-4-(1-methyl-1H-pyrazol-4-yl)phenyl)amino)-5-methylpyrimidin-4-yl)amino)phenyl)-2-methylpropane-2-sulfonamide] | 16.9 |
| CC(=O)N1CCN(c2ccc(Nc3ncc(C)c(Nc4cccc(NS(=O)(=O)C(C)(C)C)c4)n3)cc2OC(C)C)CC1 [N-(3-((2-((4-(4-acetylpiperazin-1-yl)-3-isopropoxyphenyl)amino)-5-methylpyrimidin-4-yl)amino)phenyl)-2-methylpropane-2-sulfonamide] | 13 |
| CC(C)Oc1cc(Nc2ncc(Cl)c(Nc3ccc(NS(=O)(=O)C(C)(C)C)cc3)n2)ccc1-c1cnn(C)c1 [N-(4-((5-chloro-2-((3-isopropoxy-4-(1-methyl-1H-pyrazol-4-yl)phenyl)amino)pyrimidin-4-yl)amino)phenyl)-2-methylpropane-2-sulfonamide] | 75.9 |
| COc1cc(N2CCN(C(C)=O)CC2)ccc1Nc1ncc(C)c(Nc2cccc(NS(=O)(=O)C(C)(C)C)c2)n1 [N-(3-((2-((4-(4-acetylpiperazin-1-yl)-2-methoxyphenyl)amino)-5-methylpyrimidin-4-yl)amino)phenyl)-2-methylpropane-2-sulfonamide] | 21.3 |
| Cc1cnc(Nc2ccc(OCC3CCOCC3)cc2)nc1Nc1cccc(NS(=O)(=O)C(C)(C)C)c1 [2-methyl-N-(3-((5-methyl-2-((4-((tetrahydro-2H-pyran-4-yl)methoxy)phenyl)amino)pyrimidin-4-yl)amino)phenyl)propane-2-sulfonamide] | 26 |
| CC(=O)N1CCN(c2ccc(Nc3ncc(C)c(Nc4cccc(NS(=O)(=O)C(C)(C)C)c4)n3)cc2)CC1 [N-(3-((2-((4-(4-acetylpiperazin-1-yl)phenyl)amino)-5-methylpyrimidin-4-yl)amino)phenyl)-2-methylpropane-2-sulfonamide] | 15.3 |
| Cc1cnc(Nc2ccc(-c3cnn(C)c3)cc2OC(C)C)nc1Nc1cccc(NS(=O)(=O)C(C)(C)C)c1 [N-(3-((2-((2-isopropoxy-4-(1-methyl-1H-pyrazol-4-yl)phenyl)amino)-5-methylpyrimidin-4-yl)amino)phenyl)-2-methylpropane-2-sulfonamide] | 149 |
| Cc1cnc(Nc2ccc(-c3cnn(C)c3)c(OC(C)C)c2)nc1Nc1cccc(NS(=O)(=O)C(C)(C)C)c1 [N-(3-((2-((3-isopropoxy-4-(1-methyl-1H-pyrazol-4-yl)phenyl)amino)-5-methylpyrimidin-4-yl)amino)phenyl)-2-methylpropane-2-sulfonamide] | 26 |

The next lines start with the values.

| IC50 [nM] | SMILES |
| --- | --- |
| 30.8 | COc1cc(N2CCN(C)CC2)c(F)cc1Nc1ncc(C)c(Nc2ccc(NS(=O)(=O)C(C)(C)C)cc2)n1 [N-(4-((2-((5-fluoro-2-methoxy-4-(4-methylpiperazin-1-yl)phenyl)amino)-5-methylpyrimidin-4-yl)amino)phenyl)-2-methylpropane-2-sulfonamide] |
| 26.7 | CC(C)Oc1cc(Nc2ncc(Cl)c(Nc3ccc(NS(C)(=O)=O)cc3)n2)ccc1N1CCN(C)CC1 [N-(4-((5-chloro-2-((3-isopropoxy-4-(4-methylpiperazin-1-yl)phenyl)amino)pyrimidin-4-yl)amino)phenyl)methanesulfonamide] |
| 7.62 | COc1cc(N2CCN(C)CC2)ccc1Nc1ncc(C)c(Nc2ccc(NS(=O)(=O)C(C)(C)C)cc2)n1 [N-(4-((2-((2-methoxy-4-(4-methylpiperazin-1-yl)phenyl)amino)-5-methylpyrimidin-4-yl)amino)phenyl)-2-methylpropane-2-sulfonamide] |
| 18.7 | Cc1cnc(Nc2ccc(N3CCN(C)CC3)c(OC(C)C)c2)nc1Nc1ccc(NS(=O)(=O)C(C)(C)C)cc1 [N-(4-((2-((3-isopropoxy-4-(4-methylpiperazin-1-yl)phenyl)amino)-5-methylpyrimidin-4-yl)amino)phenyl)-2-methylpropane-2-sulfonamide] |
| 14.8 | COc1cc(N2CCN(C)CC2)c(F)cc1Nc1ncc(C)c(Nc2ccc(NS(C)(=O)=O)cc2)n1 [N-(4-((2-((5-fluoro-2-methoxy-4-(4-methylpiperazin-1-yl)phenyl)amino)-5-methylpyrimidin-4-yl)amino)phenyl)methanesulfonamide] |
| 17.5 | COc1cc(Nc2ncc(Cl)c(Nc3ccc(NS(=O)(=O)C(C)(C)C)cc3)n2)ccc1N1CCN(C)CC1 [N-(4-((5-chloro-2-((3-methoxy-4-(4-methylpiperazin-1-yl)phenyl)amino)pyrimidin-4-yl)amino)phenyl)-2-methylpropane-2-sulfonamide] |
| 16.9 | COc1cc(N2CCN(C)CC2)c(F)cc1Nc1ncc(C)c(Nc2cccc(NS(=O)(=O)C(C)(C)C)c2)n1 [N-(3-((2-((5-fluoro-2-methoxy-4-(4-methylpiperazin-1-yl)phenyl)amino)-5-methylpyrimidin-4-yl)amino)phenyl)-2-methylpropane-2-sulfonamide] |
| 37.6 | COc1c(Nc2ncc(C)c(Nc3cccc(NS(=O)(=O)C(C)(C)C)c3)n2)ccc(N2CCN(C)CC2)c1F [N-(3-((2-((3-fluoro-2-methoxy-4-(4-methylpiperazin-1-yl)phenyl)amino)-5-methylpyrimidin-4-yl)amino)phenyl)-2-methylpropane-2-sulfonamide] |
| 17.5 | COc1cc(N2CCN(C)CC2)ccc1Nc1ncc(Cl)c(Nc2ccc(NS(=O)(=O)C(C)(C)C)cc2)n1 [N-(4-((5-chloro-2-((2-methoxy-4-(4-methylpiperazin-1-yl)phenyl)amino)pyrimidin-4-yl)amino)phenyl)-2-methylpropane-2-sulfonamide] |
